Calls of active or inactive are those of the source. The rule behind the calls is not given here.
How the values were obtained:
[1] = tested on: HepG2; assay: Inhibition of lipid accumulation in human HepG2 cells at 20 uM incubated for 24 hrs by Oil Red O staining analysis relative to oleic acid; format: functional
[2] = tested on: HepG2; assay: Increase in glycerol release in human HepG2 cells at 25 uM incubated for 24 hrs by microplate reader analysis; format: functional, cell-based
[3] = Reduction in melanin production in mouse Melan-a cells at 5 uM measured after 72 hrs by microplate reader; format: functional
[4] = tested on: Melan-a; assay: Reduction in MITF protein expression in mouse Melan-a cells at 5 uM measured after 72 hrs by Western blot analysis; format: functional, cell-based
[5] = tested on: Melan-a; assay: Reduction in tyrosinase protein expression in mouse Melan-a cells at 5 uM measured after 72 hrs by Western blot analysis; format: functional, cell-based
[6] = tested on: Melan-a; assay: Reduction in TRP1 protein expression in mouse Melan-a cells at 5 uM measured after 72 hrs by Western blot analysis; format: functional, cell-based
[7] = molecular target: T1, Tyrosinase (Agaricus bisporus) (UniProt O42713); assay: Inhibition of mushroom tyrosinase activity at 5 uM measured after 1 hr by microplate reader analysis
T1 sequence (whole entry): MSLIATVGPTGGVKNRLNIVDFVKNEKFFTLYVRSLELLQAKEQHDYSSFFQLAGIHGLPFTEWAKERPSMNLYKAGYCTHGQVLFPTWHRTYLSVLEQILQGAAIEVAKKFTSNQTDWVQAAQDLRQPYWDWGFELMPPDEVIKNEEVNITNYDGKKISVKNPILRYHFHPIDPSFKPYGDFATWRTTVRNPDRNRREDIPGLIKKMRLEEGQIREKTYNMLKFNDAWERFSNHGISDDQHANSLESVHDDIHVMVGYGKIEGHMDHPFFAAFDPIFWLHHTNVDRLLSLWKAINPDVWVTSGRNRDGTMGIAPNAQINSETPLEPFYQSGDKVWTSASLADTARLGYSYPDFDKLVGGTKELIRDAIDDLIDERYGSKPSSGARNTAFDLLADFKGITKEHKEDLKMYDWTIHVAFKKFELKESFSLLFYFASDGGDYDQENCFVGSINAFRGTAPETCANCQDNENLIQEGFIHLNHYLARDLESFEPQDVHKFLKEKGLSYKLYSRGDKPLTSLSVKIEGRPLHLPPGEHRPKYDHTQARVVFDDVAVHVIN

`C/C(=C\CC1=C[C@H]2C(=O)C(O)=C[C@@]12C(C)C)CO` gave an inhibition at 20 µM [1] of 29%.
For `C/C(=C\C[C@]12C=C[C@@]1(O)C(=O)C=C2C(C)C)CO`, the inhibition at 20 µM [1] was 29% and the Activity [2] was “Active”.
For `C/C(=C\CC1=C[C@@H]2C(=O)C(O)=C[C@]12C(C)C)CO`, the inhibition at 20 µM [1] was 29%.
With `C/C(=C\C[C@@]12C=C[C@]1(O)C(=O)C=C2C(C)C)CO` the inhibition at 20 µM [1] was 29% and the Activity [2] was “Active”.
In the case of `C/C(=C\Cc1ccc(=O)c(O)cc1C(C)C)CO`, the inhibition at 5 µM [3] is reported as 10%, the Activity [4] is reported as “Active” and the Activity [5] is reported as “Active”. The Activity [6] was “Active”, the inhibition at 20 µM [1] was 29% and the Activity [2] was “Active”. The inhibition [7] was “Active”.

Source: ChEMBL document CHEMBL4842334, “Tropolone-Bearing Sesquiterpenes from Juniperus chinensis: Structures, Photochemistry and Bioactivity” (2021)
